Columns and labels:
Format in all cases: binding
Details in all cases: single dose, Dose = 10 µM
[1] = target: T1, STARD3 (Homo sapiens, UniProt Q14849); test: Differential scanning fluorimetry (DSF), STARD3
T1 construct: STARD3(216-444); made in house; host or cells: E. coli BL21(DE3)
T1 sequence (Q14849 216-444): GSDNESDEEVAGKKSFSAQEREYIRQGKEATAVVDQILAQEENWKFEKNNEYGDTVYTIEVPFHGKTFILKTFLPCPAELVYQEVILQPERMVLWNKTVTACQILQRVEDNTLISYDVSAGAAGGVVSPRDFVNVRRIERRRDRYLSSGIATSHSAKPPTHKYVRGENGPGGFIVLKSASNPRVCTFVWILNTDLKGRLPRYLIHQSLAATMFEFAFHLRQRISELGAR
Excerpt: (§1) Protein expression constructs
(§2) Human ASTER domains of Aster-A(359-547), -B(364-552) and -C(318-504) were subcloned into a pGEX-6p-2rbs vector, thus introducing the cloning artifact ‘GPLGS’.3 The pGEX-6P-1-GST-OSBP(377- […]
(§3) a gift from James H. Hurley (University of California).4 The pHIS_2His6_Thrombin_STARD4(2-205;C75S) plasmid was a gift from Young Jun Im (Chonnam National University).5 STARD5A was a gift from Nicola Burgess-Brown (Addgene plasmid #42392; http://n2t.net/addgene:42392; […]
(§4) Protein expression and purification […]
(§5) vectors including an N-terminal PreScission-cleavable glutathione S-transferase (GST)-tag were expressed in Escherichia coli (E. coli) OverExpress C41 in Terrific Broth (TB) medium for 16 h at 18 °C after the induction with 0.1 mM isopropyl β-D-1-thiogalactopyranoside (IPTG). Cells were harvested at 3500 × g for 15 minutes and lysed by sonication in buffer containing 50 mM HEPES pH 7.5, 300 mM NaCl, 10 %v/v glycerol, 5 mM dithiothreitol (DTT), 0.1 %v/v Triton X-100 and protease inhibitor mix HP plus (Serva). The lysate was purified by affinity chromatography on a GSTrap FF column (Cytiva) using an ÄKTA Start (Cytiva) in buffer containing 50 mM HEPES pH 7.5, 300 mM NaCl, 10 %v/v glycerol, 5 mM DTT and 0.01 %v/v Triton X-100. The GST-tag was cleaved overnight on the column at 4 °C. The Aster sterol binding domains were further purified by size-exclusion chromatography (SEC) on a HiLoad 16/600 Superdex 75 pg (Cytiva) in buffer containing 20 mM HEPES pH 7.5, 300 mM NaCl, 10 %v/v […]
(§6) STARD5(6-213) harboring an N-terminal His6-Tag were expressed in E. coli BL21(DE3) in Luria-Bertani Broth (LB) medium for approximately 16 h at 18 °C after induction with 0.15 mM IPTG. Cells were harvested at 3500 × g for 15 minutes and lysed by sonication in buffer containing 50 mM HEPES pH 7.5, 150 mM NaCl, 5 %v/v glycerol, 5 mM DTT, 0.1 %v/v Triton X -100 and ethylenediaminetetraacetic acid (EDTA)-free protease inhibitor cocktail (Sigma-Aldrich). The cleared lysate was purified by affinity chromatography on a Ni-NTA Superflow Cartridge (Qiagen) using an ÄKTA Start (Cytiva) in buffer containing 50 mM HEPES pH 7.5, 150 mM NaCl, 5 %v/v glycerol, 5 mM DTT. START domains were eluted by using elution buffer containing 50 mM HEPES pH 7.5, 150 mM NaCl, 5 %v/v glycerol, 5 mM DTT and 500 mM imidazole. Proteins were further purified by SEC on a HiLoad 16/600 Superdex 75 pg (Cytiva) in buffer containing 20 mM HEPES pH 7.5, 150 mM NaCl, 5 %v/v glycerol and 2 mM DTT.
(§7) The ORP domain of human OSBP(377-807) in the pGEX-6p-1 vector with an N-terminal PreScission-cleavable GST-tag was expressed in E. coli OverExpress C41 in LB medium for 16 h at 18 °C after induction with 0.1 mM IPTG. Cells were harvested at 3500 × g for 15 minutes and lysed by sonication in buffer containing 20 mM HEPES pH 7.5, 300 mM NaCl, 10 %v/v glycerol, 5 mM DTT, 0.1 %v/v Triton X-100 and EDTA-free protease inhibitor cocktail (Sigma-Aldrich). The cleared lysate was purified by affinity chromatography on a GSTrap HF column (Cytiva) using an ÄKTA Start (Cytiva) in buffer containing 20 mM HEPES pH 7.5, 300 mM NaCl, 10 %v/v glycerol, 5 mM DTT. OSBP(377 -807) was eluted by using elution buffer containing 20 mM HEPES pH 7.5, 300 mM NaCl, 10 %v/v glycerol, 5 mM DTT and 10 mM reduced glutathione. Proteins were further purified by SEC on a HiLoad 16/600 Superdex 75 pg (Cytiva) using an ÄKTA Explorer (Cytiva) in buffer containing 20 mM HEPES pH 7.5, 150 mM NaCl, 10 %v/v glycerol and 2 mM DTT.
(§8) The ORP domains of human ORP1(534-950) in pET24b(+) and ORP2(49-480) in the pET24b(+) vector including an N-terminal His6-Tag were expressed in E. coli BL21(DE3) in TB medium for approximately 16 h at 18 °C after induction with 0.1 mM IPTG. Cells were collected at 3500 × g for 15 minutes and lysed by sonification in buffer containing 10 mM Tris-HCl pH 8, 300 mM NaCl, 5 % glycerol, 2 mM DTT, 0.1 % Triton X-100 and EDTA-free protease inhibitor cocktail (Sigma-Aldrich). The cleared […]

[2] = target: T2, STARD4 (Homo sapiens, UniProt Q96DR4, C75S); test: Differential scanning fluorimetry (DSF), STARD4
T2 construct: STARD4(2-205; C75S); made in house; host or cells: E. coli BL21(DE3)
T2 sequence (Q96DR4 2-205 C75S): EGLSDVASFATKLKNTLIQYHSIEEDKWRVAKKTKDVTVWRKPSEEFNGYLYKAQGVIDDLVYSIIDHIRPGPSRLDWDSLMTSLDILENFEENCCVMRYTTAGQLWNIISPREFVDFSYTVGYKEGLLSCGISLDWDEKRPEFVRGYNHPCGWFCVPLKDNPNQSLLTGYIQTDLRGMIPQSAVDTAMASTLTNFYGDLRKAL
Excerpt: as §1, §2, §3, §4, §5, §6, §7, §8

[3] = target: T3, STARD5 (Homo sapiens, UniProt Q9NSY2); test: Differential scanning fluorimetry (DSF), STARD5
T3 construct: STARD5(6-213); host or cells: E. coli BL21(DE3)
T3 sequence (Q9NSY2 6-213): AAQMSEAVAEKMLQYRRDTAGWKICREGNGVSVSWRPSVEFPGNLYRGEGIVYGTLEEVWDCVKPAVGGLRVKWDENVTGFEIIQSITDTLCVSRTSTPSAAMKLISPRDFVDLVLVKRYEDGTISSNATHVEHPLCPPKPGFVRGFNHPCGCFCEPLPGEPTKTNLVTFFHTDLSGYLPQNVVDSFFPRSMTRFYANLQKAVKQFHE
Excerpt: as §1, §2, §3, §4, §5, §6, §7, §8

With `Cc1ccc2c(c1)C(=O)[C@]1(CC[C@@H]3C[C@H](O)CC[C@@]31C)N2` [Compound 13] the ΔTm at 10 µM [1] was -0.0638 °C, the ΔTm at 10 µM [2] was 1.1 °C and the ΔTm at 10 µM [3] was 0.143 °C.

From PMC11758220, “Identification of a Privileged Scaffold for Inhibition of Sterol Transport Proteins through the Synthesis and Ring Distortion of Diverse, Pseudo-Natural Products” (ACS Central Science, 2025)
